Experimental data as given in US6440978B2, “Therapeutic agent for dermatitis” (Nippon Zoki Pharmaceutical Co., Ltd., priority 2000, dated 2002).

Columns and labels:
ear of a normal mouse = experiment: Influence of repeated application on the ear thickness of a normal mouse; format: in vivo; settings: nine times in total, 2 hours after final application
Procedure: The therapeutic agent for dermatitis according to the present invention or the positive control (steroid preparation) was applied twice daily to the right ear of a normal mouse for a total of nine times and, 2 hours after the final application, the thickness of the ear was measured.

[1] = tested on: antigen-induced flare-up reaction in a mouse; experiment: Suppressive action against antigen-induced flare-up reaction in a mouse; format: in vivo, BALB/c female mice; settings: 3% ointment
Procedure: Seven week old BALB/c female (SPF) mice of were selected as subjects. According to a method of Tanaka, et al. (Allergy, 46, pages 42-48(1997)), egg white albumin (final concentration: 2 μg/mL) and aluminum hydroxide gel (final concentration: 10 mg/mL) were suspended in physiological saline and 0.5 mL of the suspension was administered to effect intraperitoneal sensitization on the first day of the test. On the 14th day of the test, an additional sensitization was carried out under the same conditions. Further, on the 28th day of the test, 25 μL of egg albumin (a 20 μg/mL solution in physiological saline) was intradermally administered to the right ear of a mouse to induce a swelling reaction.
This swelling reaction reached its peak at 4 hours after the challenge by the antigen. Even after 24 to 48 hours, a significant swelling reaction was noted as compared with the control in which antigen was merely challenged (not sensitized). […] On the contrary, the swelling from 24 to 48 hours after the challenge is thought to be the so-called delayed-type swelling reaction accompanied by infiltration of eosinophils, neutrophils and lymphocytes. In addition, a flare-up reaction having a peak at 24 hours after the challenge appeared on the ear of the antigen-induced site. Like swelling, flare-up is an important symptom of inflammation. Although the mechanism of the flare-up reaction is ambiguous, it may be a flare-up reaction of a delayed type in view of the time course of its expression. As such, this model animal in which the inflammation of both immediate and delayed types are induced is appropriate as a model animal for atopic dermatitis. In the following experiment, the effectiveness of the therapeutic agent for dermatitis according to the present invention was tested using the said model animal.
Each of a vehicle (control) and an agent for the test (the therapeutic agent for dermatitis according to the present invention or a positive control) was applied to the antigen-induced site (right auricle) of a mouse to induce a swelling reaction in accordance with Example 2 at 2 hours before and 4 hours after the challenge. The right ear was observed by naked eye and the degree of flare-up was scored according to the following standard:
1: in such a degree that a flare-up was confirmed, the color is clear red or pale red and the size was small
2: between score 3 and score 1
3: color of the flare-up was clearly red and the size of the flare-up was big

[2] = tested on: phosphodiesterase type IV (PDE IV); experiment: Inhibitory action against phosphodiesterase type IV; format: biochemical, human
Source text: (§1) The inhibitory action of the compounds of the present invention against activities of various phosphodiesterase (PDE) isozymes were investigated using the conventional method. Each of the inhibitory action of the compounds of the present invention on the activities of phosphodiesterase type II (PDE II) partially purified from human platelets, phosphodiesterase type III […] partially purified from human platelets, phosphodiesterase type IV (PDE IV) partially purified from human U937 promonocytic leukemia cells and phosphodiesterase type V (PDE V) partially purified from human platelets were measured.

[3] = biological target: T1, phosphodiesterase type II (PDE II) (Homo sapiens, UniProt O00408); experiment: Inhibitory action against phosphodiesterase type II; format: biochemical; settings: 100 μM; PDE II from human platelets
T1 construct: phosphodiesterase type II (PDE II) partially purified from human platelets; from tissue; host or cells: human platelets
Source text: as §1

[4] = tested on: guinea pig eosinophils in the abdominal cavity; experiment: Suppression of LTB4-induced chemotaxis of guinea pig eosinophils (modified Boyden chamber); format: cell-based, Hartley male guinea pigs; settings: Cavia porcellus, Eosinophil; chemotaxis induced by 10^-7 M LTB4, 37° C., 2 hours; 5 trials
Procedure: The suppressive effect of the compounds of the present invention on the leukotriene B4 or LTB4 induced chemotaxis of guinea pig eosinophils in the abdominal cavity were investigated using a modified Boyden chamber method. The guinea pig eosinophils in the abdominal cavity were prepared using Hartley male guinea pigs according to the conventional method. The chemotaxis of the eosinophils was induced by 10^−7 M of leukotriene B4 or LTB4 in 37° C. for 2 hours in the presence or absence of the test drug (the therapeutic agent for dermatitis of the present invention). After the chemotaxis cells were fixed and stained using the Giemsa stain, the number of chemotaxis cells was counted in visual fields of a microscope (×400). The experiments were repeated several times and the suppression rate of the test drug was calculated by the following formula:
Suppression Rate (%)=100×[(the number of chemotaxis eosinophils in control group)—(the number of chemotaxis eosinophils in the test drug group)]/[(the number of chemotaxis eosinophils in control group)—(the number of spontaneous chemotaxis eosinophils)]
The 50% inhibitory concentration (IC50) was calculated from the regression line obtained by the least square method based on the calculated suppression rates.

[5] = biological target: T2, phosphodiesterase type III (Homo sapiens, UniProt Q14432); experiment: Inhibitory action against phosphodiesterase type III; format: biochemical; settings: 100 μM; PDE III from human platelets
T2 construct: phosphodiesterase type III […] partially purified from human platelets; from tissue; host or cells: human platelets
Source text: as §1

[6] = biological target: T3, phosphodiesterase type V (PDE V) (Homo sapiens, UniProt O76074); experiment: Inhibitory action against phosphodiesterase type V; format: biochemical; settings: 100 μM; PDE V from human platelets
T3 construct: phosphodiesterase type V (PDE V) partially purified from human platelets; from tissue; host or cells: human platelets
Source text: as §1

T2 sequence (Q14432 whole entry): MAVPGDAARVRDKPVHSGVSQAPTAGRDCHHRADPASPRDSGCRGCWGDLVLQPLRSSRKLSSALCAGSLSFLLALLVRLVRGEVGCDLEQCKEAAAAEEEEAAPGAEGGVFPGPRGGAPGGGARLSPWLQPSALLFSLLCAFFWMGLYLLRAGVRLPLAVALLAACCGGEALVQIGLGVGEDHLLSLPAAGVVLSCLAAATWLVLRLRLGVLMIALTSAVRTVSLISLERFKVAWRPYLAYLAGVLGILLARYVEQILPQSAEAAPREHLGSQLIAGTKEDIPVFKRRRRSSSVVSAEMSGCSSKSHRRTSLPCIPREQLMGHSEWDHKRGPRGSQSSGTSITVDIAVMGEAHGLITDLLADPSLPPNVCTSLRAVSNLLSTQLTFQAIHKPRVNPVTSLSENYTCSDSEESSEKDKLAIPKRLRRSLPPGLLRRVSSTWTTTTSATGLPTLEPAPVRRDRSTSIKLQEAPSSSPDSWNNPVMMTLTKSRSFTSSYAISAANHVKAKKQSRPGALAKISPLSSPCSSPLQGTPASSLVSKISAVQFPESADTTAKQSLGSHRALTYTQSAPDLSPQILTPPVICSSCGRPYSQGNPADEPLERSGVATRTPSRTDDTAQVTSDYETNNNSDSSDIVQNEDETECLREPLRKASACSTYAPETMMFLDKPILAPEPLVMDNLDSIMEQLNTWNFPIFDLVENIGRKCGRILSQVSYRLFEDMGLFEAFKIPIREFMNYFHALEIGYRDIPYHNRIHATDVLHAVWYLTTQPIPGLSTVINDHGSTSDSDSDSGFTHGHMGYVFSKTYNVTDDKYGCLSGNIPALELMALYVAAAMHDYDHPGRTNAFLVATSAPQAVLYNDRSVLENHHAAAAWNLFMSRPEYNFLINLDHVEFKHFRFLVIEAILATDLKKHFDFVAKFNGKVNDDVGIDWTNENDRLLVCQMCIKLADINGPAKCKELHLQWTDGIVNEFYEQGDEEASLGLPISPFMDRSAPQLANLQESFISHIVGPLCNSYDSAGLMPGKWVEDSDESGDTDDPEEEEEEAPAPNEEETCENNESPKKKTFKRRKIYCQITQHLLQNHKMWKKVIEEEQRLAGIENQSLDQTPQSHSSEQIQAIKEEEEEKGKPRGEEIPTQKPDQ
T1 sequence (O00408 whole entry): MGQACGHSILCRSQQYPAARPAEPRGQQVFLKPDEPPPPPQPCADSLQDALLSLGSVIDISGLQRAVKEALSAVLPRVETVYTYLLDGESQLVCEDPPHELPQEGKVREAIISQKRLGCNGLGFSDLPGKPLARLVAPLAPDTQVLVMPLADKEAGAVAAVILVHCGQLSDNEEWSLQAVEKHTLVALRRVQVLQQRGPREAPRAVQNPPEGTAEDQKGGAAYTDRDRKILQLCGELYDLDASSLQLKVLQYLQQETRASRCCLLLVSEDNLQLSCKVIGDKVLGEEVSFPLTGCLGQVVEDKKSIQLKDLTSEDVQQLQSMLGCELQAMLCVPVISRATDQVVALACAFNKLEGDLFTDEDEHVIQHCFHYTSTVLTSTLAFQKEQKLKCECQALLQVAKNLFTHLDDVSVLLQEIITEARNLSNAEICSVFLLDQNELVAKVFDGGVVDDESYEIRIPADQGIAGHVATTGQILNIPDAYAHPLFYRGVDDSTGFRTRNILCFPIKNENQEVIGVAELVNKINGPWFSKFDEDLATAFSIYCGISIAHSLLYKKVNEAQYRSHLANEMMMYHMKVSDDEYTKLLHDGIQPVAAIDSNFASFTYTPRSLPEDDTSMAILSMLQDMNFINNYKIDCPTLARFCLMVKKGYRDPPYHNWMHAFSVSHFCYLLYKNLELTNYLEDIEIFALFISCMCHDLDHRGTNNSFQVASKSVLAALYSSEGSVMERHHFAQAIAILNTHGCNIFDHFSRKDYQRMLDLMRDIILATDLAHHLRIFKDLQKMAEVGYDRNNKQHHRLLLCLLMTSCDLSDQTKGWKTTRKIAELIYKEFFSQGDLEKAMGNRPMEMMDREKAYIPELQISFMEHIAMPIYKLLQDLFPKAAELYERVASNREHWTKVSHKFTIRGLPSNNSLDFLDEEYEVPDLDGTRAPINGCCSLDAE

Nc1ccc2c(=O)n(Cc3ccccc3)c(=O)n(-c3ccccc3)c2n1 [Compound 1, 7-amino-3-benzyl-1,2,3,4-tetrahydro-1-phenylpyrido[2,3-d]pyrimidin-2,4-dione]
Ear Thickness (ear of a normal mouse; 3% ointment applied twice daily): 22.3 ± 0.2 × 0.01 mm | Ear Thickness (ear of a normal mouse; 10% ointment applied twice daily): 22.3 ± 0.5 × 0.01 mm | Suppression Rate of flare-up score at 4 hr after Challenge ([1]; 4 hr after challenge): (0.0%) | Flare-up Score at 4 hr after Challenge ([1]; 4 hr after challenge, score 0-3): 0.8 ± 0 | Suppression Rate of flare-up score at 24 hr after Challenge ([1]; 24 hr after challenge): (32.0%) | Flare-up Score at 24 hr after Challenge ([1]; 24 hr after challenge, score 0-3): 1.7 ± 0.2 | dose dependence of PDE IV inhibitory effect [2]: dose dependent | suppression activity against PDE IV ([2]; 100 μM, PDE IV from human U937 promonocytic leukemia cells): 82% | PDE isozyme selectivity ([2]; PDE IV versus PDE II, III and V at 100 μM): PDE IV selective inhibitory effect | suppression activity against PDE II [3]: 6% | IC50 [4]: 1900 ± 400 nM | melting point: 261 to 262 °C | suppression activity against PDE III [5]: 22% | suppression activity against PDE V [6]: 15%
